Reference: patent publication US10835524B2, “Compositions for the treatment of pancreatic cancer and uses thereof” (University of Florida Research Foundation, Incorporated, priority 2015, dated 2020)

Legend:
[1] = system: 4 KRAS mutant PDAC cell lines (MIA PaCa-2, Panc-1, T182, E549); experiment: Viability of KRAS mutant PDAC cell lines after single-drug treatment, MTT assay at 72 hours; assay type: cell-based, human; murine; conditions: 4 PDAC cell lines
Experimental: We treated each cell line with the mTOR inhibitor Everolimus, the AKT inhibitor MK-2206, the dual PI-3K/mTOR inhibitor BEZ235, and the MEK inhibitor Selumetinib, or Compound P (mefloquine), prior to viability assessment at 72 hours via MTT assay.
To determine optimal doses for combination, we first analyzed the viability dose-response curves for each drug. […] The optimal dose for each drug was then serially diluted by one-half from the chosen optimal dose to 1/32nd of the chosen optimal dose, such that six combination points could be analyzed. Because the ratio of each drug in each experiment remained constant in all serial dilutions, we refer to this method as the “fixed molar ratio method”.

human TS = human TS (Homo sapiens, UniProt P04818); experiment: Inhibition of the enzymatic activity of thymidylate synthase; assay type: biochemical
PDAC = experiment: Inhibition of PDAC in vivo by combination with KRAS/PI-3K/AKT/mTOR pathway inhibitors; conditions: partner inhibitors not named

Chain of human TS (P04818 whole entry): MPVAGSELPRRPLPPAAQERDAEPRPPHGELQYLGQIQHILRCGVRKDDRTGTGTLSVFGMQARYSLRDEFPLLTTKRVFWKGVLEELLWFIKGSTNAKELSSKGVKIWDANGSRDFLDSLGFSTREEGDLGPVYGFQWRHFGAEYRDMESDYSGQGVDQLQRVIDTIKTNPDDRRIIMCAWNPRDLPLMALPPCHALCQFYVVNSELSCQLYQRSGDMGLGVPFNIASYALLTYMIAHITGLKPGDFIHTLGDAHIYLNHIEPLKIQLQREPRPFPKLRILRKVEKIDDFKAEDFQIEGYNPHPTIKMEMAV

Row | mode of inhibition of the enzymatic activity of human TS (human TS) | Structure (SMILES) | growth inhibition effect on cell viability [1] | synergy with inhibitors of the KRAS/PI-3K/AKT/mTOR pathway to inhibit PDAC in vivo (PDAC)
1 |  | Cn1c(=O)n(-c2ccc(C(C)(C)C#N)cc2)c2c3cc(-c4cnc5ccccc5c4)ccc3ncc21 [BEZ235, 2-methyl-2-[4-(3-methyl-2-oxo-8-quinolin-3-ylimidazo[4,5-c]quinolin-1-yl)phenyl]propanenitrile] | fully cytotoxic in 3 out of 4 cell lines | 
2 | partial mixed-type | OC(c1cc(C(F)(F)F)nc2c(C(F)(F)F)cccc12)C1CCCCN1 (stereo not drawn) [Compound P, [2,8-bis(trifluoromethyl)quinolin-4-yl]-piperidin-2-ylmethanol] | cytotoxic in all cell lines tested | synergizes
3 |  | CO[C@H]1C[C@@H]2CC[C@@H](C)[C@@](O)(O2)C(=O)C(=O)N2CCCC[C@H]2C(=O)O[C@H]([C@H](C)C[C@@H]2CC[C@@H](OCCO)[C@H](OC)C2)CC(=O)[C@H](C)/C=C(\C)[C@@H](O)[C@@H](OC)C(=O)[C@H](C)C[C@H](C)/C=C/C=C/C=C/1C [Everolimus, (1S,9R,15R,16E,18R,19R,21S,23R,24E,26E,28E,30S,32R,35S)-1,18-dihydroxy-12-[(2S)-1-[(1S,3R,4R)-4-(2-hydroxyethoxy)-3-methoxycyclohexyl]propan-2-yl]-19,30-dimethoxy-15,17,21,23,29,35-hexamethyl-11,36-dioxa-4-azatricyclo[30.3.1.0^4,^9]hexatriaconta-16,24,26,28-tetraene-2,3,10,14,20-pentone] | potently cytostatic | 
4 |  | Cl.Cl.NC1(c2ccc(-c3nc4ccn5c(=O)[nH]nc5c4cc3-c3ccccc3)cc2)CCC1 [MK-2206, 8-[4-(1-aminocyclobutyl)phenyl]-9-phenyl-2H-[1,2,4]triazolo[3,4-f][1,6]naphthyridin-3-one; dihydrochloride] | fully cytotoxic in 3 out of 4 cell lines | 
